Reference: patent US20240174690A1, “ANNULATED 2-AMINO-3-CYANO THIOPHENES AND DERIVATIVES FOR THE TREATMENT OF CANCER” (BOEHRINGER INGELHEIM INTERNATIONAL GMBH, priority 2021, published 2024)

Assays:
SK-CO-1 cells = test: SK-CO-1 CTG proliferation assay (120 h) (CRC, G12V); format: cell-based; details: Homo sapiens; SK-CO-1 cells (CRC, G12V), CTG 120 h
In short: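 SK-CO-1 colorectal cells (KRAS G12V), 500 per well in EMEM + 10% FCS, dosed with compound the day after seeding and grown 120 h at 37 °C. Viability by CellTiter-Glo luminescence as percent of DMSO control; IC50 from four-parameter non-linear regression.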

[1] = Metabolic (microsomal) stability assay, human liver microsomes (HLM); format: in vitro ADME; details: predicted clearance as percent of liver blood flow, 1 μM
In short: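 LC-MS/MS tracked parent disappearance at 0, 5, 15, 30 and 60 min in NADPH-initiated incubations with 1 mg/mL human microsomal protein and 1 μM compound at 37°C, pH 7.5. First-order fits gave intrinsic clearance, which was scaled up and reported as % QH. NADPH-free controls were also run.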

AsPC-1 cells = test: AsPC-1 CTG proliferation assay (120 h) (pancreatic cancer, G12D); format: cell-based; details: Homo sapiens, ASPC1
In short: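 AsPC-1 cells (KRAS G12D), 2000/well in RPMI with 10% FCS, seeded overnight, then treated with compound for 120 h at 37 °C. Viability by CellTiter-Glo luminescence as percent of DMSO control. IC50 from a four-parameter non-linear fit.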

[2] = Plasma protein binding assay (PPB), equilibrium dialysis, 10% FCS in PBS; format: in vitro ADME; details: bovine, read-out: PPB 10% FCS (% fu)
In short: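 Equilibrium dialysis (5-10 kg/mol cut-off membrane) of 1-10 μmol/L test compound in 10% FCS/PBS against PBS with or without dextran, 3-5 h at 37° C. Compound in each chamber quantified by LC-MS after protein precipitation; fu calculated from Cserum and Cbuffer.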

SAS cells = test: SAS CTG proliferation assay (120 h) (HNSCC, wt amplified); format: cell-based
In short: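 SAS cells plated at 300 per well in DMEM:F12 with 10% FCS and left overnight, then given compounds acoustically. After 120 h exposure, viability read by CellTiter-Glo as percent of DMSO control. IC50 from four-parameter non-linear regression.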

SMILES | IC50 (SK-CO-1 cells) [nM] | HLM QH [1] [%] | IC50 (AsPC-1 cells) [nM] | fraction unbound [2] | IC50 (SAS cells) [nM]
C[C@H](Oc1cc(-c2cccc(C(N)=O)c2)nc(-c2noc3c2CCC[C@@]32CCCc3sc(N)c(C#N)c32)n1)[C@@H]1CCCN1C [II-133] | 89 | <24 | 2700 | 0.04 | 202
C[C@H](O)Cn1ncc(-c2cc(O[C@@H](C)[C@@H]3CCCN3C)nc(-c3noc4c3CCC[C@@]43CCCc4sc(N)c(C#N)c43)n2)n1 [II-134] | 225 | 34 | 9670 | 0.31 | 35
C[C@H]1CNCCCN1c1cc(-c2ccn(C)n2)nc(-c2noc3c2CCC[C@@]32CCCc3sc(N)c(C#N)c32)n1 [II-140] | 292 | <24 | 21600 |  | 128
C[C@H](Oc1cc(-n2cc3c(n2)CCN(C)C3)nc(-c2noc3c2CCC[C@@]32CCCc3sc(N)c(C#N)c32)n1)[C@@H]1CCCN1C [II-141] | 436 | 28 | 244 | 0.6 | 873
C[C@H]1CNCCCN1c1cc(-n2ccnc2)nc(-c2noc3c2CCC[C@@]32CCCc3sc(N)c(C#N)c32)n1 [II-142] | 2190 |  | 10100 |  | 6110
C[C@H](Oc1cc(N2CCOC2=O)nc(-c2noc3c2CCC[C@@]32CCCc3sc(N)c(C#N)c32)n1)[C@@H]1CCCN1C [II-143] | 9 | 57 | 1510 | 0.18 | 48
C[C@H](Oc1cc(-c2ccn(C)n2)nc(-c2noc3c2CCC[C@@]32CCCc3sc(N)c(C#N)c32)n1)[C@@H]1C[C@H](F)CN1C [II-144] | 130 | 75 | 7100 | 0.11 | 302
C[C@H](Oc1cc(N2CCN(C)C3(COC3)C2)nc(-c2noc3c2CCC[C@@]32CCCc3sc(N)c(C#N)c32)n1)[C@@H]1C[C@@H](F)CN1C [II-148] | 779 | 52 | 376 | 0.25 | 421
C[C@H](Oc1cc(N2CCN(C)C3(CC3)C2)nc(-c2noc3c2CCC[C@@]32CCCc3sc(N)c(C#N)c32)n1)[C@@H]1C[C@@H](F)CN1C [II-149] | 1980 | 45 | 257 | 0.17 | 849
C[C@H](Oc1cc(N2CCNC3(COC3)C2)nc(-c2noc3c2CCC[C@@]32CCCc3sc(N)c(C#N)c32)n1)[C@@H]1C[C@@H](F)CN1C [II-150] | 325 | 64 | 27 | 0.13 | 91
C[C@H](Oc1cc(N2CCN(C)C3(CCOC3)C2)nc(-c2noc3c2CCC[C@@]32CCCc3sc(N)c(C#N)c32)n1)[C@@H]1C[C@@H](F)CN1C (stereo partly drawn) [II-151] | 1360 | 59 | 714 | 0.24 | 161
CO[C@@H]1C[C@@H]([C@H](C)Oc2cc(N3CCN(C)C4(CC4)C3)nc(-c3noc4c3CCC[C@@]43CCCc4sc(N)c(C#N)c43)n2)N(C)C1 [II-152] | 955 | 58 | 526 | 0.08 | 4230
CO[C@@H]1C[C@@H]([C@H](C)Oc2cc(N3CCN(C)C4(COC4)C3)nc(-c3noc4c3CCC[C@@]43CCCc4sc(N)c(C#N)c43)n2)N(C)C1 [II-153] | 872 | 58 | 577 | 0.14 | 199
C[C@H](Oc1cc([C@H]2CCNC2)nc(-c2noc3c2CCC[C@@]32CCCc3sc(N)c(C#N)c32)n1)[C@@H]1CCCN1C [II-163] | 649 |  | 935 | 0.61 | 274
CC(C)N1CCCN(c2cc(-n3ccnc3)nc(-c3noc4c3CCC[C@@]43CCCc4sc(N)c(C#N)c43)n2)[C@@H](C)C1 [II-169] | 316 | 39 | 3730 |  | 4410
CCN1CCN(c2cc(O[C@@H](C)[C@@H]3C[C@@H](F)CN3C)nc(-c3noc4c3CCC[C@@]43CCCc4sc(N)c(C#N)c43)n2)CC12CC2 [II-185] | 1290 |  | 190 | 0.02 | 2420
CNC1CCN(c2cc(O[C@@H](C)[C@@H]3CCCN3C)nc(-c3noc4c3CCC[C@@]43CCCc4sc(N)c(C#N)c43)n2)CC1 [II-214] | 5350 | <24 | 3520 | 0.81 | 
